In the NIST ThermoML archive (doi:10.1021/acs.jced.7b00650):

Conditions: Liquid; for viscosity: Capillary tube (Ostwald / Ubbelohde) method; for mass density: Vibrating tube method

CCCCCCCCCCCC [dodecane]
Conditions | mass density [kg/m3] | viscosity [mPa·s]
293.21 K, 2007 kPa | 750.58 | 1.522
293.21 K, 3977 kPa | 752.18 | 1.56
293.21 K, 5979 kPa | 753.71 | 1.599
293.21 K, 7982 kPa | 755.06 | 1.639
293.21 K, 12987 kPa | 758.27 | 1.74
293.21 K, 29985 kPa | 768.5 | 2.106
293.22 K, 9987 kPa | 756.38 | 1.679
293.22 K, 15986 kPa | 760.07 | 1.801
293.22 K, 18994 kPa | 761.82 | 1.865
293.22 K, 21995 kPa | 763.63 | 1.929
293.22 K, 24987 kPa | 765.5 | 1.994
293.22 K, 27987 kPa | 767.37 | 2.061
313.1 K, 1990 kPa | 736.16 | 1.089
313.1 K, 4017 kPa | 737.72 | 1.116
313.1 K, 6016 kPa | 739.14 | 1.143
313.1 K, 8014 kPa | 740.64 | 1.171
313.1 K, 10011 kPa | 742.11 | 1.199
313.1 K, 13007 kPa | 744.26 | 1.241
313.1 K, 16011 kPa | 746.36 | 1.283
313.1 K, 19017 kPa | 748.61 | 1.326
313.1 K, 22017 kPa | 750.69 | 1.37
313.1 K, 25019 kPa | 752.63 | 1.414
313.1 K, 28017 kPa | 754.52 | 1.458
313.1 K, 30020 kPa | 755.75 | 1.489
333 K, 3976 kPa | 723.61 | 0.8436
333.01 K, 2024 kPa | 721.82 | 0.823
333.01 K, 5981 kPa | 725.32 | 0.8643
333.01 K, 7987 kPa | 726.99 | 0.885
333.01 K, 10019 kPa | 728.35 | 0.9059
333.01 K, 13016 kPa | 730.73 | 0.9374
333.01 K, 16014 kPa | 733.04 | 0.9691
333.01 K, 19018 kPa | 735.29 | 1.001
333.01 K, 22015 kPa | 737.46 | 1.033
333.01 K, 25018 kPa | 739.58 | 1.066
333.01 K, 28015 kPa | 741.65 | 1.099
333.01 K, 30024 kPa | 742.99 | 1.121
353.12 K, 2000 kPa | 706.86 | 0.6433
353.12 K, 3991 kPa | 708.83 | 0.6598
353.12 K, 5996 kPa | 710.75 | 0.6763
353.12 K, 8009 kPa | 712.81 | 0.6929
353.12 K, 10014 kPa | 714.63 | 0.7095
353.12 K, 13006 kPa | 717.28 | 0.7344
353.12 K, 16007 kPa | 719.83 | 0.7594
353.12 K, 19003 kPa | 722.16 | 0.7845
353.12 K, 22006 kPa | 724.55 | 0.8098
353.12 K, 25008 kPa | 726.87 | 0.8352
353.12 K, 28011 kPa | 729.13 | 0.8607
353.12 K, 30007 kPa | 730.59 | 0.8778
